This passage reports Ki results from patent US20060135522A1, “Tricyclic delta-opioid modulators” (priority 2004, published 2006).

Like-named read-outs stand apart in the source and are kept apart here.

This assay has as its target T1, delta opioid receptor (Rattus norvegicus, UniProt P33533).
T1 construct: from tissue; host or cells: forebrain of male Wistar rats (particulate membrane preparation)
The assay can be described thus: Rat Brain Delta Opioid Receptor Binding Assay. Here is the method:
Procedure: Male, Wistar rats (150-250 g, VAF, Charles River, Kingston, N.Y.) were killed by CO2, and their brains were removed and placed immediately in ice cold Tris HCl buffer (50 mM, pH 7.4). The forebrains were separated from the remainder of the brain by a coronal transection, beginning dorsally at the colliculi and passing ventrally through the midbrain-pontine junction. After dissection, the forebrains were homogenized in Tris buffer in a Teflon®-glass homogenizer. The homogenate was diluted to a concentration of 1 g of forebrain tissue per 80 mL Tris and centrifuged at 39,000×g for 10 min. The pellet was resuspended in the same volume of Tris buffer containing 5 mM MgCl2 with several brief pulses from a Polytron homogenizer. This particulate preparation was used for the delta opioid binding assays. Following incubation with the delta selective peptide ligand ˜4 nM [^3H]DPDPE or 0.15 nM [^3H]naltrindole at 25° C. for 2.5 h in a 96-well plate with total volume of […], the plate contents were filtered through Wallac filtermat B sheets on a Tomtec 96-well harvester. The filters were rinsed three times with 2 mL of 10 mM HEPES (pH 7.4), and dried in a 650 W microwave oven for 1.75 min twice. To each sample area 2×50 μL of Betaplate Scint scintillation fluid (LKB) was added and the radioactivity was quantified on a LKB (Wallac) 1205 BetaPlate liquid scintillation counter.
Analysis: The data from the scintillation counter was used to calculate either the % inhibition compared to control binding (when only a single concentration of test compound was evaluated) or a Ki value (when a range of concentrations was tested). Percent inhibition was calculated as: [(total dpm-test compound dpm)/(total dpm-nonspecific dpm)]*100. Kd and Ki values were calculated using GraphPad PRISM data analysis program.

The mark [1] stands for this setting: rat forebrain membranes, [3H]DPDPE or [3H]naltrindole, 25° C., 2.5 h, read-out: delta (Ki).

T1 sequence (P33533 whole entry): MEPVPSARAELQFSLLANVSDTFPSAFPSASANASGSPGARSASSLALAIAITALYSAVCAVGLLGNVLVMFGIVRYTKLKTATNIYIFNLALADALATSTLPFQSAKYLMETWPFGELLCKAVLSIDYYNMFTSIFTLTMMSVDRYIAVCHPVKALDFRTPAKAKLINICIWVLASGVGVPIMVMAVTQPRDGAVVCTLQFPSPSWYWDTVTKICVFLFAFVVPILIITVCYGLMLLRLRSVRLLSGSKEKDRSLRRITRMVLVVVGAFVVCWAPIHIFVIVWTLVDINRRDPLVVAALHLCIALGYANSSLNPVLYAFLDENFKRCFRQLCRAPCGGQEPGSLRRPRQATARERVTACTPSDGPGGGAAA

`CC(=O)Nc1ccccc1-c1ccc2c(c1)Oc1c(O)cccc1C2C1CCN(Cc2ccccn2)CC1` (stereo not drawn) [5e, N-{2-[5-Hydroxy-9-(1-pyridin-2-ylmethyl-piperidin-4-yl)-9H-xanthen-3-yl]-phenyl}-acetamide] showed a Ki of 0.1 nM. Same read-out and setting: the same measure for `CC(=O)Nc1ccccc1-c1ccc2c(c1)Oc1c(O)cccc1C2C1CCN(Cc2cccs2)CC1` (stereo not drawn) [6e, N-{2-[5-Hydroxy-9-(1-thiophen-2-ylmethyl-piperidin-4-yl)-9H-xanthen-3-yl]-phenyl}-acetamide]: 0.1 nM; for `COc1cccc2c1Sc1cc(-c3ccncc3)ccc1C2C1CCNCC1` (stereo not drawn) [11q, 4-(5-Methoxy-9-piperidin-4-yl-9H-thioxanthen-3-yl)-pyridine]: 68.1 nM. `Oc1cccc2c1Oc1cc(-c3cccnc3)ccc1C2C1CCN(Cc2ccccc2)CC1` (stereo not drawn) [5i, 9-(1-Benzyl-piperidin-4-yl)-6-pyridin-3-yl-9H-xanthen-4-ol] returned a Ki of 94 nM. In turn, `Oc1cccc2c1Sc1cc(-c3ccncc3)ccc1C2C1CCNCC1` (stereo not drawn) [12q, 9-Piperidin-4-yl-6-pyridin-4-yl-9H-thioxanthen-4-ol] yielded a Ki of 0.7 nM. In turn, `C=CCN1CCC(C2c3ccc(-c4cccnc4)cc3Oc3c(O)cccc32)CC1` (stereo not drawn) [6i, 9-(1-Allyl-piperidin-4-yl)-6-pyridin-3-yl-9H-xanthen-4-ol] came in with a Ki of 27.5 nM. For the compound `COc1cccc2c1Sc1cc(-c3ccccc3NC(C)=O)ccc1C2C1CCNCC1` (stereo not drawn) [13q, N-[2-(5-Methoxy-9-piperidin-4-yl-9H-thioxanthen-3-yl)-phenyl]-acetamide], the Ki under setting [1] came to 110 nM. Take `Oc1cccc2c1Oc1cc(-c3nnn[nH]3)ccc1C2C1CCNCC1` (stereo not drawn) [4r, 9-Piperidin-4-yl-6-(1H-tetrazol-5-yl)-9H-xanthen-4-ol]: the Ki is 14 nM.

For `C=CCN1CCC(C2c3ccc(-c4ccccc4NC(C)=O)cc3Sc3c(O)cccc32)CC1` (stereo not drawn) [16q, N-{2-[9-(1-Allyl-piperidin-4-yl)-5-hydroxy-9H-thioxanthen-3-yl]-phenyl}-acetamide], the Ki under setting [1] was found to be 121 nM.

In the case of `Oc1cccc2c1Sc1cc(-c3cccnc3)ccc1C2C1CCN(Cc2ccccn2)CC1` (stereo not drawn) [18q, 6-Pyridin-3-yl-9-(1-pyridin-2-ylmethyl-piperidin-4-yl)-9H-thioxanthen-4-ol], the Ki came out at 0.4 nM. On the same count and under the same terms, the same measure for `CC(=O)Nc1ccccc1-c1ccc2c(c1)Sc1c(O)cccc1C2C1CCNCC1` (stereo not drawn) [14q, N-[2-(5-Hydroxy-9-piperidin-4-yl-9H-thioxanthen-3-yl)-phenyl]-acetamide]: 0.2 nM; for `Oc1cccc2c1Oc1cc(-c3cccnc3)ccc1C2C1CCN(Cc2cccs2)CC1` (stereo not drawn) [4i, 6-Pyridin-3-yl-9-(1-thiophen-2-ylmethyl-piperidin-4-yl)-9H-xanthen-4-ol]: 96.7 nM. Consider `CC(=O)Nc1ccccc1-c1ccc2c(c1)Sc1c(O)cccc1C2C1CCN(Cc2ccccn2)CC1` (stereo not drawn) [19q, N-{2-[5-Hydroxy-9-(1-pyridin-2-ylmethyl-piperidin-4-yl)-9H-thioxanthen-3-yl]-phenyl}-acetamide], for which the Ki is 0.1 nM. On to `Oc1cccc2c1Sc1cc(-c3cccnc3)ccc1C2C1CCNCC1` (stereo not drawn) [10q, 9-Piperidin-4-yl-6-pyridin-3-yl-9H-thioxanthen-4-ol], for which the Ki came out at 0.2 nM. Same read-out and setting: the same measure for `CCN(CC)C(=N)c1ccc2c(c1)Oc1ccccc1C2C1CCN(Cc2ccoc2)CC1` (stereo not drawn) [3p, N,N-Diethyl-9-(1-furan-3-ylmethyl-piperidin-4-yl)-9H-xanthene-3-carboxamidine]: 16.1 nM; for `Oc1cccc2c1Sc1cc(-c3ccncc3)ccc1C2C1CCN(Cc2ccccn2)CC1` (stereo not drawn) [15q, 6-Pyridin-4-yl-9-(1-pyridin-2-ylmethyl-piperidin-4-yl)-9H-thioxanthen-4-ol]: 0.1 nM. In turn, `COc1cccc2c1Sc1cc(-c3cccnc3)ccc1C2C1CCNCC1` (stereo not drawn) [9q, 3-(5-Methoxy-9-piperidin-4-yl-9H-thioxanthen-3-yl)-pyridine] registered a Ki of 87.8 nM.

In the case of `C=CCN1CCC(C2c3ccccc3Oc3cc(C(=O)N4CC[C@H](O)C4)ccc32)CC1` (stereo partly drawn) [7n, [9-(1-Allyl-piperidin-4-yl)-9H-xanthen-3-yl]-(3-(S)-hydroxy-pyrrolidin-1-yl)-methanone], the Ki under setting [1] worked out at 9230 nM.
